# Measured values reported in patent publication US9060968B2, “Treatment of degenerative joint disease” (AMPIO PHARMACEUTICALS, INC., priority 2011, dated 2015).
# Tested on: oxidized collagen IV
# Test: Binding to H2O2 treated collagen IV (decrease in <5 kDa filtrate by LCMS)
# Design: species or system human
# Details: for Binding to collagen, result in words: oxidized forms of collagen
# Method: Collagen source: 1 mg/ml Collagen IV form human placenta in 0.25% acetic acid (Sigma™). The collagen was oxidixed with 500 μM H2O2 in 1×PBS for 1 hour at 37° C. The oxidized collagen IV (final=0.2 mg/ml) was then incubated with 2 μM DA-DKP or 2 μM NAT in PBS for 1 hour at 37° C. At the end of the incubation, the <5 kDa fraction was isolated by a VIVASPIN® 2 microcentrifugal filter having a molecular weight cutoff of 5,000. The <5 kDa fraction was analyzed for DA-DKP and/or NAT content using a liquid chromatograph-mass spectrometery (LCMS) method for DA-DKP analysis.
Compound,"Average % decrease (2 μM, oxidized collagen IV 0.2 mg/ml, 1 hour at 37° C., alone) [%]","Binding to collagen, result in words"
"C[C@@H]1NC(=O)[C@H](CC(=O)O)NC1=O [DA-DKP, aspartyl-alanyl diketopiperazine]",26.0,bind to oxidized forms of collagen
"CC(=O)N[C@@H](Cc1c[nH]c2ccccc12)C(=O)O [NAT, N-acetyl-tryptophan]",,bind to oxidized forms of collagen
